Laboratory results: article PMC6028563, “Probing Substituents in the 1- and 3-Position: Tetrahydropyrazino-Annelated Water-Soluble Xanthine Derivatives as Multi-Target Drugs With Potent Adenosine Receptor Antagonistic Activity” (Frontiers in Chemistry, 2018)

Key:
recombinant human MAO-A = biological target: T1, recombinant human MAO-A (Homo sapiens, UniProt P21397); assay: Monoamine oxidase assay (Amplex Red), MAO-A; assay type: biochemical; settings: for inhibition at 10 µM: at 10,000 nM, read-out: % inhibition at indicated concentration, Human MAO-A; for IC50: n = 3, read-out: IC50 ± SEM, Human MAO-A
T1 construct: purchased Sigma-Aldrich M7316; host or cells: baculovirus-infected insect cells
T1 sequence (P21397 1-527): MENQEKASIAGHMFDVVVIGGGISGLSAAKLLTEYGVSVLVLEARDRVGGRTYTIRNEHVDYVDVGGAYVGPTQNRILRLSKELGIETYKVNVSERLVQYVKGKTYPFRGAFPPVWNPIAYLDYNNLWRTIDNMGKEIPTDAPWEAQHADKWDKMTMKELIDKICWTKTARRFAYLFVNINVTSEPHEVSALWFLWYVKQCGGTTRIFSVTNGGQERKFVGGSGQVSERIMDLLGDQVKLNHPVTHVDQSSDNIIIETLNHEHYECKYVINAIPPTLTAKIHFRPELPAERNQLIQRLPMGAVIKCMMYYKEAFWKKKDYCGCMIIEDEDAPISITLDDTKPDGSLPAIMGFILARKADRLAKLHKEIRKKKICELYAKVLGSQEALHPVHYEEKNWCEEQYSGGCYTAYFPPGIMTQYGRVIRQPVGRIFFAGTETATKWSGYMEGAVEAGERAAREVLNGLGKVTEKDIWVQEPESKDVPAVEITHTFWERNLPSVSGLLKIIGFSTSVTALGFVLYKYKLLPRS
Experimental: (§1) The determination of MAO-A and MAO-B inhibition was performed using commercially available recombinant human MAO-A and MAO-B enzymes expressed in baculovirus-infected insects sells (Sigma-Aldrich, M7316 and M7441) applying the commercially available Amplex® Red monoamine oxidase assay kit (Invitrogen A12214). The assays were performed as previously described. The determination of rat MAO-B inhibition was performed using mitochondrial-enriched fractions from male Sprague Dawley rat livers. […]

recombinant human MAO-B = biological target: T2, recombinant human MAO-B (Homo sapiens, UniProt P27338); assay: Monoamine oxidase assay (Amplex Red), MAO-B; assay type: biochemical; settings: for IC50: read-out: IC50 ± SEM, Human MAO-B; for inhibition at 10 µM: at 10,000 nM (10 μM), read-out: % inhibition at indicated concentration, Human MAO-B
T2 construct: purchased Sigma-Aldrich M7441; host or cells: baculovirus-infected insect cells
T2 sequence (P27338 1-520): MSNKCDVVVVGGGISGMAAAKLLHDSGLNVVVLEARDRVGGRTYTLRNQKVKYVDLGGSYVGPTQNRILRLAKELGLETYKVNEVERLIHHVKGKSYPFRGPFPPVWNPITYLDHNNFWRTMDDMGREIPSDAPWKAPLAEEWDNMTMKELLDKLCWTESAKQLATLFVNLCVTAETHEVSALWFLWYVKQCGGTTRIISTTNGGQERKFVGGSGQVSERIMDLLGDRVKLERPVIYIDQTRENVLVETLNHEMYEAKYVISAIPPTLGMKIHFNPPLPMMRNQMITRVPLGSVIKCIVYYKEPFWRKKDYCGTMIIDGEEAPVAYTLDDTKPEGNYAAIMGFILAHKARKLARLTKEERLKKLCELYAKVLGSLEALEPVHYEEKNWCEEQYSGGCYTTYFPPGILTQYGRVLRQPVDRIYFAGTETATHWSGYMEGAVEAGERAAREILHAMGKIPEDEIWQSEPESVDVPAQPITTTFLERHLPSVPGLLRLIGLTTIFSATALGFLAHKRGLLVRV
Experimental: as §1

human A2B AR = biological target: T3, human A2B AR (Homo sapiens, UniProt P29275); assay: Radioligand binding assay at human A2B AR vs. [^3H]PSB-603; settings: for Ki: CHO cell membranes, n = 2 (n = 3 where marked a), read-out: Ki ± SEM, A2B vs. [^3H]PSB-603; for inhibition at 1 µM: at 1,000 nM, read-out: % inhibition of radioligand binding at indicated concentration, A2B vs. [^3H]PSB-603
T3 construct: expressed in transfected cells; host or cells: CHO cells
T3 sequence (P29275 1-332): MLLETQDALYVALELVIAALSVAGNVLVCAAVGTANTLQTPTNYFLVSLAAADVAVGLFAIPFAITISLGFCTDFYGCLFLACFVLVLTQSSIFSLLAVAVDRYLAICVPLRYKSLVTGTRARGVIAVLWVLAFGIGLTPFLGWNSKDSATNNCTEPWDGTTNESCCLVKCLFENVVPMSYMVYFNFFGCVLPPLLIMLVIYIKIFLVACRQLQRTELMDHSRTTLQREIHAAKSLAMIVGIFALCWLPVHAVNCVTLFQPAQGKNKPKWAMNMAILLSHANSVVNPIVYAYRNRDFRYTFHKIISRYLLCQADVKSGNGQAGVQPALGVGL
Experimental: (§2) Membrane preparations and radioligand binding assays at rat A1 (rat brain cortex) and rat A2A ARs (rat brain striatum) were performed as previously described (Ozola et al., [2003]; Alnouri et al., [2015]). For assays at human A1, A2A, A2B, and A3 ARs, CHO cell membranes expressing one of the human AR subtypes were used as previously reported (Klotz et al., [1998]; Alnouri et al., [2015]; De Filippo et al., [2016]).
(§3) The synthesized tetrahydropyrazino[2,1-f ]purinediones 13–20 were evaluated in radioligand binding assays for their affinity to A1 ARs of rat brain cortical membrane and to A2A ARs of rat brain striatal membrane preparations. Selected compounds were further investigated for their affinity to human A1 and A2A ARs recombinantly expressed in Chinese hamster ovary (CHO) cells. All compounds were additionally investigated for their affinity to human A2B and A3 ARs recombinantly expressed in CHO cells to determine their AR subtype selectivity. […] It is well known that all xanthine derivatives lacking a ribose moiety, including tricyclic compounds, can only block ARs, but never act as AR agonists; therefore, additional functional studies were not required. […] Potent MAO-B inhibitors were additionally investigated for inhibition of human MAO-A to assess their selectivity. Results are presented in Tables 1–6, and data of standard ligands are included for comparison.

rat A2A AR = biological target: T4, rat A2A AR (Rattus norvegicus, UniProt P30543); assay: Radioligand binding assay at rat A2A AR (rat brain striatum) vs. [^3H]MSX-2; settings: rat (r); for % inhibition of radioligand binding at indicated concentration, A2A vs. [^3H]MSX-2: at 1,000 nM; for Ki: rat brain striatum, n = 3, read-out: Ki ± SEM, A2A vs. [^3H]MSX-2
T4 construct: A2A ARs of rat brain striatal membrane preparations; from tissue; host or cells: rat brain striatum membranes
T4 sequence (P30543 whole entry): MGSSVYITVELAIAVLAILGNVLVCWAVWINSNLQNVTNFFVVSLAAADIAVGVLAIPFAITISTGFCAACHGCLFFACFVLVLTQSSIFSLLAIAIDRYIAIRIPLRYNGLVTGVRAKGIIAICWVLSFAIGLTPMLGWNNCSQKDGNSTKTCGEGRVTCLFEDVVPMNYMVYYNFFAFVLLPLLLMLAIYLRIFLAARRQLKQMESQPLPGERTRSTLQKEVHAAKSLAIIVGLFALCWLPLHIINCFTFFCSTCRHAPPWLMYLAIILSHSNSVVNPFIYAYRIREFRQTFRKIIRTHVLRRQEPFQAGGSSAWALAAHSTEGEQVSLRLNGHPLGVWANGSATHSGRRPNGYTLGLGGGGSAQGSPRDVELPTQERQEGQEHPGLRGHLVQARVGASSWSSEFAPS
Experimental: as §2, §3

human A3 AR = biological target: T5, human A3 AR (Homo sapiens, UniProt P0DMS8); assay: Radioligand binding assay at human A3 AR vs. [^3H]PSB-11; settings: for Ki: CHO cell membranes, n = 2 (n = 3 where marked a), read-out: Ki ± SEM, A3 vs. [^3H]PSB-11; for inhibition at 10 µM: at 10,000 nM, read-out: % inhibition of radioligand binding at indicated concentration, A3 vs. [^3H]PSB-11
T5 construct: expressed in transfected cells; host or cells: CHO cells
T5 sequence (P0DMS8 1-318): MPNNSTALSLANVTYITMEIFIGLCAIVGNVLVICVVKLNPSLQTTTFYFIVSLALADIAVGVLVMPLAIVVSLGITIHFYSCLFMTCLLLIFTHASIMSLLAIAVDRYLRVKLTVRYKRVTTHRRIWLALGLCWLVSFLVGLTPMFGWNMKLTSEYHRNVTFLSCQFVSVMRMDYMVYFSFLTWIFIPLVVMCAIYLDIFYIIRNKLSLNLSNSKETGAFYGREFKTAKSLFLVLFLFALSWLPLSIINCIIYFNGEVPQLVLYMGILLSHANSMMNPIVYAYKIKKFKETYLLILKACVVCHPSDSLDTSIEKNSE
Experimental: as §2, §3

rat A1 AR = biological target: T6, rat A1 AR (Rattus norvegicus, UniProt P25099); assay: Radioligand binding assay at rat A1 AR (rat brain cortex) vs. [^3H]CCPA; settings: rat (r); for Ki: rat brain cortex, n = 3; for inhibition at 1.5 µM: read-out: % inhibition of radioligand binding at indicated concentration, A1 vs. [^3H]CCPA, at 1,500 nM
T6 construct: A1 ARs of rat brain cortical membrane; from tissue; host or cells: rat brain cortex membranes
T6 sequence (P25099 1-326): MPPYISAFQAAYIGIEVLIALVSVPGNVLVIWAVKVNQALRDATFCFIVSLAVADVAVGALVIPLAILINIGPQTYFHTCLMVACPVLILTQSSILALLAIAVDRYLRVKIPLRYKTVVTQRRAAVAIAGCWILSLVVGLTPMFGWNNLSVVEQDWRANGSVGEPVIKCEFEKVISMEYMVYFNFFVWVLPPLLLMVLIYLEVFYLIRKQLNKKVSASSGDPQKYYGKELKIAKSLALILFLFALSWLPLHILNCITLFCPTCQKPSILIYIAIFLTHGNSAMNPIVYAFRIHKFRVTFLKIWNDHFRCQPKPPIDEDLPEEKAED
Experimental: as §2, §3

human A1 AR = biological target: T7, human A1 AR (Homo sapiens, UniProt P30542); assay: Radioligand binding assay at human A1 AR vs. [^3H]CCPA; settings: human (h); CHO cell membranes; n = 3
T7 construct: expressed in transfected cells; host or cells: CHO cells
T7 sequence (P30542 1-326): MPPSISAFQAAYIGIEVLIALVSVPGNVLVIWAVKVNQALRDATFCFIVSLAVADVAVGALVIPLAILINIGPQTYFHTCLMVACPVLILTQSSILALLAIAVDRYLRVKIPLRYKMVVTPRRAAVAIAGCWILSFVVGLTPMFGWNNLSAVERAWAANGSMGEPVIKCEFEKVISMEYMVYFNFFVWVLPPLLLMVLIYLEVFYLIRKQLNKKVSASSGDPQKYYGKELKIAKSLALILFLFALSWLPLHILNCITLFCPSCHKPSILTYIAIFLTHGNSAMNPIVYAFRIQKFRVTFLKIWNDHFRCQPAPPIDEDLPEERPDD
Experimental: as §2, §3

| SMILES | inhibition at 10 µM (recombinant human MAO-A) [%] | IC50 (recombinant human MAO-A) [µM] | IC50 ± SEM, Human MAO-B (recombinant human MAO-B; n = 3) | IC50 (recombinant human MAO-B; n = 3) [µM] | Ki (human A2B AR) [µM] | inhibition at 1 µM (human A2B AR) [%] | % inhibition of radioligand binding at indicated concentration, A2A vs. [^3H]MSX-2 (rat A2A AR) [%] | Ki (rat A2A AR) [µM] | Ki (human A3 AR) [µM] | inhibition at 10 µM (human A3 AR) [%] | Ki (rat A1 AR) [µM] | inhibition at 1.5 µM (rat A1 AR) [%] | Ki (human A1 AR) [µM] | inhibition at 10 µM (recombinant human MAO-B) [%] |
| --- | --- | --- | --- | --- | --- | --- | --- | --- | --- | --- | --- | --- | --- | --- |
| Cn1c(=O)[nH]c(=O)c2c1nc1n2CCN(CCc2ccc(Cl)c(Cl)c2)C1 [Compound 13g, 8-(3,4-dichlorophenethyl)-1-methyl-6,7,8,9-tetrahydropyrazino[2,1-f]purine-2,4(1H,3H)-dione] | 12 | > 10 | submicromolar range | 0.864 ± 0.064 | > 1 | 1 | 10 | > 1 | > 10 | 41 | > 1.5 | 3 |  |  |
| CCn1c(=O)c2c(nc3n2CCN(Cc2ccc(F)cc2)C3)n(C)c1=O [Compound 14h, 3-ethyl-8-(4-fluorobenzyl)-1-methyl-6,7,8,9-tetrahydropyrazino[2,1-f]purine-2,4(1H,3H)-dione] |  |  |  | > 10 | > 1 | 9 | 7 | > 1 | > 10 | 37 | 0.164 ± 0.028 |  | 5.12 | 24 |
| CCn1c(=O)c2c(nc3n2CCN(Cc2c(Cl)cccc2Cl)C3)n(C)c1=O [Compound 14k, 8-(2,6-dichlorobenzyl)-3-ethyl-1-methyl-6,7,8,9-tetrahydropyrazino[2,1-f]purine-2,4(1H,3H)-dione] |  |  |  | > 10 | > 1 | 8 |  | 1.1 | > 10 | 17 | 0.142 ± 0.032 |  | 0.197 ± 0.005 | 43 |
| CCn1c(=O)c2c(nc3n2CCN(Cc2ccccc2F)C3)n(CC)c1=O [Compound 15a, 1,3-diethyl-8-(2-fluorobenzyl)-6,7,8,9-tetrahydropyrazino[2,1-f]purine-2,4(1H,3H)-dione] |  |  |  | > 10 | > 1 | 12 |  | 2 | 7.82 |  | 0.032 ± 0.0009 |  | 0.156 ± 0.005 | 22 |
| CCn1c(=O)c2c(nc3n2CCN(Cc2cccc(F)c2)C3)n(CC)c1=O [Compound 15b, 1,3-diethyl-8-(3-fluorobenzyl)-6,7,8,9-tetrahydropyrazino[2,1-f]purine-2,4(1H,3H)-dione] |  |  |  | ≥ 10 | > 1 | 9 |  | 1.58 | 7.02 |  | 0.0472 ± 0.0199 |  | 0.207 ± 0.011 | 49 |
| CCn1c(=O)c2c(nc3n2CCN(Cc2ccc(F)c(C(F)(F)F)c2)C3)n(CC)c1=O [Compound 15i, 1,3-diethyl-8-(4-fluoro-3-(trifluoromethyl)benzyl)-6,7,8,9-tetrahydropyrazino[2,1-f]purine-2,4(1H,3H)-dione] | 8 | > 10 |  | 3.07 | > 1 | 33 | 30 | > 1 | > 10 | 36 | > 1.5 | 19 |  |  |
